Results: US20120122935A1, “COMPOSITIONS AND METHODS FOR TREATING NECROTIZING ENTEROCOLITIS” (NATIONWIDE CHILDREN'S HOSPITAL, INC., priority 2007, published 2012)
Marks after values point to notes of the source that are not given here.

Legend:
[1] = system: newborn rat model of NEC; test: newborn rat model of NEC (formula feeding, hypoxia, hypothermia, LPS); assay type: in vivo; details: for Percent of Pups with NEC (any grade) / Percent of Pups with NEC Grade >2: one oral dose each day, n=8; for overall survival of pups exposed to the rat NEC model: nicotinamide treated vs control pups, FIG. 8
From the text: We have established valuable preclinical animal models that mimic intestinal injury in NEC. (Caplan M S, Hedlund E, Adler L, et al. Role of asphyxia and feeding in a neonatal rat model of necrotizing enterocolitis. Pediatr Pathol. November-December 1994; 14(6):1017-1028.) The model involves exposing neonatal rat pups to hypoxia, hypothermia, and formula feeding, leading to physiological stress and intestinal injury that pathologically is very similar to NEC in infants. Pups are delivered by cesarean section at E20 from timed pregnant dams. Pups are fed every 3 h with one skipped feed at 4 am (7 times/day) by oral gavage with 100 ul of a hypertonic formula (Similac and Esbilac). At 8 h post-delivery, pups are treated with 2 mg/kg LPS orally with feeding. Beginning on DOL 1, pups are fed every 3 h and subjected to hypoxic (2 min in 100% nitrogen) and hypothermal (10 min at 4° C.) stress twice daily immediately after feeds. Pups are sacrificed at DOL 4, or when discomfort warrants. Upon sacrifice, the distal ileum is collected in two sections. One section is immediately fixed in 10% neutral buffered formalin, and the other is snap-frozen in liquid nitrogen. Tissues are fixed for 48 h before histological processing and embedding in paraffin.
Each photomicrograph represents a different severity grading score of intestinal injury in this model as follows: (A)=Grade 0 or normal, (B)=Grade 1 or minimal intestinal damage, (C)=Grade 2 or minimal/modest intestinal damage, (D)=Grade 3 or moderate intestinal injury, (E) Grade 4 or severe intestinal injury. This system is based on the previously published intestinal injury grading system for the newborn rat intestinal model of NEC induced by formula feeding-hypoxia-hypothermia.

[2] = system: Human fetal intestinal epithelial cells (FHS741NT); test: in vitro model of immature intestinal wound restitution (scrape wound plus LPS); assay type: cell-based; details: 50 mg/ml nicotinamide after wounding and LPS administration, FIG. 14
Procedure: We have established cell culture conditions for neonatal human intestinal epithelial cells (IEC), which we have developed as a platform for investigating cellular responses and identifying potential protection strategies. Human fetal intestinal epithelial cells (FHS741NT), passage seven or less, were seeded (40,000 cells/ml) in poly-1-lysine coated 8-chamber slides (Labtek II; Nunc, Rochester, N.Y.) in media (DMEM containing 10% FBS, L-glutamine (2 mM), EGF (30 ng/ml), and insulin (10 μg/ml)) and allowed to reach confluence. A wound was created in the cell monolayer using a specific cell scraper device attached to a microscope. The microscope stage controls allow the creation of a reproducible straight wound in each slide chamber (width 500 μm). After wounding, media was replaced with media (DMEM with 10% FBS, L-glutamine (2 mM)) containing the appropriate treatment compound. […]
Digital images of wounds were captured using a 10× objective on an inverted microscope (Olympus, Melville, N.Y.) with an attached digital camera (Diagnostic Instruments, Sterling Heights, Mich.). […] For each subsequent image, the AOI was placed over the position of the original wound and the area occupied by cells was measured. […] Results were expressed as mean % closure where % closure=area of wound occupied by cells/area of original wound. […]

[3] = doses of 500 mg/kg or more in animal preparations; cited from earlier work

Structure (SMILES): NC(=O)c1cccnc1 [Nicotinamide, nicotinamide]
- Percent of Pups with NEC (any grade) ([1]; 50 mg/kg nicotinamide): 12.5%*
- Percent of Pups with NEC Grade >2 ([1]; 50 mg/kg nicotinamide): 12.5%
- Percent of Pups with NEC (any grade) ([1]; 500 mg/kg nicotinamide): 0%*
- Percent of Pups with NEC Grade >2 ([1]; 500 mg/kg nicotinamide): 0%
- overall survival of pups exposed to the rat NEC model [1]: improved overall survival
- overall survival of pups exposed to the rat NEC model ([1]; listed as nicotinamide): improves survival
- evidence of NEC Grade 2 or greater ([1]; one oral dose daily at 500 mg/kg): no evidence of NEC Grade 2 or greater
- protection against development of NEC / intestinal injury ([1]; one oral dose of 50 or 500 mg/kg each day): strikingly protective against the development of any NEC
- wound healing (epithelial restitution) [2]: improves wound healing
- wound healing (epithelial restitution) ([2]; listed as nicotinamide): improved wound healing
- reported toxicities [3]: little or no reported toxicities
